The nature of data set [1]: Drug uptake in Wistar rat striatum at 0.03 mg/kg, iv after 5 mins by LC-MS analysis. Format: ADME, organism-based. On the set-up: dose 0.03 mg/kg, route intravenous. The settings on record: read-out: Drug uptake.
Data set [2] is filed under the species Homo sapiens. The experiment in a line: Selectivity ratio of IC50 for human PDE10A to IC50 for human PDE2A.
The nature of data set [3]: Ratio of unbound drug level in brain to plasma in rat. The settings on record: brain and plasma (unbound), read-out: K(p,uu,brain).
Data set [4] addresses T1, cGMP-dependent 3',5'-cyclic phosphodiesterase (Homo sapiens, UniProt O00408). Format: cell-based, SF-21.
Description: Inhibition of recombinant PDE2A (unknown origin) expressed in baculovirus infected insect SF-21 cells using [3H]-cAMP as substrate after 30 mins by liquid scintillation counting analysis
The target in data set [5] is T1, cGMP-dependent 3',5'-cyclic phosphodiesterase.
Description: Inhibition of PDE2A (unknown origin) using tritium labeled cAMP as substrate after 1 hr by scintillation proximity assay
Data set [6] deals with T2, cAMP and cAMP-inhibited cGMP 3',5'-cyclic phosphodiesterase 10A (Homo sapiens, UniProt Q9Y233).
T2 sequence (Q9Y233 whole entry): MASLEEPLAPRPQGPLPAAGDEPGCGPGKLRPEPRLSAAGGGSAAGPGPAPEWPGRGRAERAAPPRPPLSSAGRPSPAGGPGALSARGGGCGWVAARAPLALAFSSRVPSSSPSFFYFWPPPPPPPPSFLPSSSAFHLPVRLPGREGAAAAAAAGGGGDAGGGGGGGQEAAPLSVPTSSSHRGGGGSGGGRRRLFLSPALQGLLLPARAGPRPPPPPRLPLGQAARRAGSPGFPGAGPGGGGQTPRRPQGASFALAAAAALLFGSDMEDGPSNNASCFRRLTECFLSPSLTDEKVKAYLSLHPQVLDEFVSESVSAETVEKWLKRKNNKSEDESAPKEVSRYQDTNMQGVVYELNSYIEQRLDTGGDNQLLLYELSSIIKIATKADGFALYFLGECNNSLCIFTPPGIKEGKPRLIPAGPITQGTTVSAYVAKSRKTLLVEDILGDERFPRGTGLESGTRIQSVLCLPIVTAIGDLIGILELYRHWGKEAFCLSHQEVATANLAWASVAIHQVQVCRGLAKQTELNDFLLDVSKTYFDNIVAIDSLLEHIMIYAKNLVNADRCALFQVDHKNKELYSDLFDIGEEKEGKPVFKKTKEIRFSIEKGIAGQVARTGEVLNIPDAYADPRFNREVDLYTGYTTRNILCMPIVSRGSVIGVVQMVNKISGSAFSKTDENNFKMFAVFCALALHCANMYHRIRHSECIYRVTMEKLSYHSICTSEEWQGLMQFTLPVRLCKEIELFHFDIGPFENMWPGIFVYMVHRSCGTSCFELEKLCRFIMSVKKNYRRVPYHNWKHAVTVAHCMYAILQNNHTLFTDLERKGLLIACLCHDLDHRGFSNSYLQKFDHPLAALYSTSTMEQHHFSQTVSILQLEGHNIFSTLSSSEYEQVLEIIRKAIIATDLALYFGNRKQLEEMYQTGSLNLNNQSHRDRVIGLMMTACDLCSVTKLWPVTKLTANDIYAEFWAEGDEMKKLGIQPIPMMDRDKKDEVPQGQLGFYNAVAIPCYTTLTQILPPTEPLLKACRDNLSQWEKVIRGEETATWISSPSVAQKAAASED
Description: Inhibition of PDE10A (unknown origin) using tritium labeled cAMP as substrate after 1 hr by scintillation proximity assay
For data set [7], the target named is T2, cAMP and cAMP-inhibited cGMP 3',5'-cyclic phosphodiesterase 10A. Nature of the data set: Inhibition of recombinant PDE10A (unknown origin) expressed in baculovirus infected insect SF-21 cells using [3H]-cAMP as substrate after 30 mins by liquid scintillation counting analysis.
Data set [8] in a line: Half life in iv dosed rat. The data set is classed as ADME, organism-based. The settings on record: in vivo.
Data set [9] in a line: Clearance in iv dosed rat. The note with it: in vivo. The data set is classed as ADME, organism-based.
For data set [10], the species on record is Bos taurus. The experiment in a line: Inhibition of bovine vascular smooth muscle PDE3 using cAMP/cGMP as substrate at 10 uM relative to control. The note with it: Muscle tissue. The data set is classed as tissue-based.
For data set [11], the species on record is Bos taurus. The experiment in a line: Inhibition of bovine vascular smooth muscle PDE4 using cAMP/cGMP as substrate at 10 uM relative to control. Format: tissue-based. The note with it: Muscle tissue.
The nature of data set [12]: Inhibition of pig/bovine heart myocardium PDE2 after 15 mins by scintillation proximity assay in presence of [3H]-cAMP. Format: tissue-based.
A short description of data set [13]: Selectivity ratio of IC50 for porcine/bovine PDE1C to IC50 for porcine/bovine heart myocardium PDE2. Format: tissue-based.
A short description of data set [14]: Selectivity ratio of IC50 for PDE (unknown origin) to IC50 for porcine/bovine heart myocardium PDE2. The data set is classed as tissue-based.
Data set [15] is filed under the species Homo sapiens. The experiment in a line: Selectivity ratio of IC50 for PDE8B (unknown origin) to IC50 for full length recombinant human PDE2A. The settings on record: tested as the 18F-labelled form.
The species named for data set [16] is Homo sapiens. Nature of the data set: Selectivity ratio of IC50 for PDE11 (unknown origin) to IC50 for full length recombinant human PDE2A. The note with it: tested as the 18F-labelled form.
For data set [17], the species on record is Homo sapiens. Nature of the data set: Selectivity ratio of IC50 for PDE7B (unknown origin) to IC50 for full length recombinant human PDE2A. The settings on record: tested as the 18F-labelled form.
The species named for data set [18] is Homo sapiens. The experiment in a line: Selectivity ratio of IC50 for PDE3A (unknown origin) to IC50 for full length recombinant human PDE2A. The note with it: tested as the 18F-labelled form.
The species entered for data set [19] is Homo sapiens. Nature of the data set: Selectivity ratio of IC50 for PDE6A (unknown origin) to IC50 for full length recombinant human PDE2A. The note with it: tested as the 18F-labelled form.
Data set [20] is filed under the species Homo sapiens. The experiment in a line: Selectivity ratio of IC50 for PDE5A (unknown origin) to IC50 for full length recombinant human PDE2A. The note with it: tested as the 18F-labelled form.
For data set [21], the species on record is Homo sapiens. Nature of the data set: Selectivity ratio of IC50 for PDE1B (unknown origin) to IC50 for full length recombinant human PDE2A. The settings on record: tested as the 18F-labelled form.
For data set [22], the species on record is Homo sapiens. Nature of the data set: Selectivity ratio of IC50 for PDE4D (unknown origin) to IC50 for full length recombinant human PDE2A. The settings on record: tested as the 18F-labelled form.
Data set [23] is filed under the species Homo sapiens. Nature of the data set: Selectivity ratio of IC50 for PDE9A (unknown origin) to IC50 for full length recombinant human PDE2A. The note with it: tested as the 18F-labelled form.
Data set [24] relates to Cerebellum. Nature of the data set: Biodistribution in cerebellum of rat measured at 2 mins by microPET image analysis. Format: ADME, organism-based. The note with it: in vivo.
Data set [25] concerns Cerebrum. Nature of the data set: Biodistribution in cerebrum of rat measured at 10 mins by microPET image analysis. The note with it: in vivo. Format: ADME, organism-based.
In data set [26] the test system is Cerebellum. The experiment in a line: Biodistribution in cerebellum of rat measured at 10 mins by microPET image analysis. The data set is classed as ADME, organism-based. The settings on record: in vivo.
Data set [27] concerns Cerebrum. The experiment in a line: Biodistribution in cerebrum of rat measured at 2 mins by microPET image analysis. The data set is classed as ADME, organism-based. The settings on record: in vivo.

This note sets out measurements from ChEMBL document CHEMBL3091315, “PDE2 inhibition: potential for the treatment of cognitive disorders” (Bioorg Med Chem Lett, 2013).

T1 sequence (O00408 whole entry): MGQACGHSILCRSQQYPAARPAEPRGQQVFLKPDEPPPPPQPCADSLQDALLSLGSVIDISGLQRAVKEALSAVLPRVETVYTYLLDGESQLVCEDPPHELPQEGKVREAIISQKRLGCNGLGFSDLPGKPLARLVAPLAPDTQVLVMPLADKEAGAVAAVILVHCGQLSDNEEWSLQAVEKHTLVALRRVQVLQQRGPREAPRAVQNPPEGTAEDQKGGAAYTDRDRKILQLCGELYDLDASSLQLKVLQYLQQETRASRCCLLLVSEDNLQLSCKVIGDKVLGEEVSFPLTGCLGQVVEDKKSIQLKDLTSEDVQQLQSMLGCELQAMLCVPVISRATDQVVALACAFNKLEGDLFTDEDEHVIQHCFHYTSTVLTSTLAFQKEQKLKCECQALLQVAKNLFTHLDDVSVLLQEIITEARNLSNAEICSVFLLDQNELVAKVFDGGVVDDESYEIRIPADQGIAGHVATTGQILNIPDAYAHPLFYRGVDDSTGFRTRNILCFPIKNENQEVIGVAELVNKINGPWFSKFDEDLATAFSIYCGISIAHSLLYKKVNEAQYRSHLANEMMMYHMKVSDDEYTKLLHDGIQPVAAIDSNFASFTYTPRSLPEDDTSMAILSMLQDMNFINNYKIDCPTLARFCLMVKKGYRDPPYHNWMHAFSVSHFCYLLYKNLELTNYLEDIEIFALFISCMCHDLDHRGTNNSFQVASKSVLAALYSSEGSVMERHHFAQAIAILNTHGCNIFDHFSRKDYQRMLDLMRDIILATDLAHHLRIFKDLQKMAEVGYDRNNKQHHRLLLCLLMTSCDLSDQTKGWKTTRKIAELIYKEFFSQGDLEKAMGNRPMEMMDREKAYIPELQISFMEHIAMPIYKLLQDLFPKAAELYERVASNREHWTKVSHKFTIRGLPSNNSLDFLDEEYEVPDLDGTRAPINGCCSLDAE

Regarding `Cc1nc2ccc(CN3CCOCC3)cc2n2c(-c3ccccc3Cl)nnc12`, the concentration at 5 min in data set [1] was determined as 70 ng/g. The Ratio IC50 in the data set filed under Homo sapiens [2] was more than 600.
On to `Cc1nc(-c2cnn(C)c2-c2ccc(C(F)(F)F)cn2)c2c(N3CCC3)ncnn12` [PF-05180999], for which the Kp uu in [3] stood at 0.5.
For `COc1ccc2nnc3c(C)nc(-c4ccccc4Cl)n3c2n1`, the IC50 in data set [4] is 4 nM.
`COc1cccc2nc(C)c3nnc(-c4ccccc4Cl)n3c12`: the IC50 came out at 6 nM in data set [5] and 9 nM in data set [6].
For `Cc1ccc2nc(C)c3nnc(-c4cc(OCCCC(F)(F)F)ccc4Cl)n3c2c1`, in data set [7], the IC50 was more than 1000 nM.
Consider `COc1ncc(-c2cc(C3=Nc4c(C(C)(C)C)nn(CCO)c4C(=O)NC3)ccc2OC)cn1`, for which the half-life in data set [8] is 1.5 h. Also, the clearance in data set [9] came out at 27 mL/min/kg.
With `COc1cc2c(cc1-c1ccccc1)C(c1cccc(C(N)=O)c1)=NCC(=O)N2C`, the inhibition in the data set listed under Bos taurus [10] was found to be 23%; in the data set listed under Bos taurus [11], 14%.
Consider `COc1ccc(Cc2nc(O)c3c(C)nc([C@@H](CCCc4ccccc4)[C@@H](C)O)n3n2)cc1OC`, for which the IC50 in data set [12] turned out to be 2 nM. For the same molecule, the results for the Ratio IC50 in data set [13] and in [14] were 50 and more than 100, respectively.
For the molecule `Cc1nc(-c2cnn(C)c2-c2ccc(C(F)(F)F)cc2)c2c(N3CC(F)C3)ncnn12`, the Ratio IC50 in the data set listed under Homo sapiens [15], in the data set listed under Homo sapiens [16], in the data set listed under Homo sapiens [17], in the data set filed under Homo sapiens [18], in the data set listed under Homo sapiens [19] and in the data set listed under Homo sapiens [20] was more than 20000 in each case. The Ratio IC50 in the data set filed under Homo sapiens [21], in the data set listed under Homo sapiens [22] and in the data set listed under Homo sapiens [23] was more than 20000 each time.
In turn, `CCC(CC)c1nn(CCO)c2c1N=C(c1ccc(-n3ccnc3C)cc1)CNC2=O` showed a half-life in data set [8] of 0.5 h. The clearance in data set [9] was determined as 70 mL/min/kg.
`Cc1nc2ccc(CN3CCOCC3)cc2n2c(-c3c([18F])cccc3Cl)nnc12`: the Drug uptake came out at 96% in the data set on Cerebellum [24], 92% with Cerebrum [25], 82% in the data set on Cerebellum [26] and 96% with Cerebrum [27].
